In patent US7220784B2, “Substituted stilbenes and their reactions” (priority 2000, dated 2007):
“And” between values parts separate entries of the source, which are not always exact repeats. Equal entries are not always repeated. Where two headings read alike, the source gives them in different places.

Columns and labels:
[1] = tested on: K562 human myelogeneous leukaemia cell line; assay: Cytotoxicity/growth inhibition assay (MTT), K562; format: cell-based; conditions: Homo sapiens, K562; MTT; read-out: K562 IC50
Outline: (§1)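 Growth inhibition of P388 murine and K562 human leukaemia cells measured by MTT assay.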

tubulin = tested on: T1, tubulin; assay: Inhibition of tubulin assembly; format: biochemical; conditions: concentration required to reduce assembly of tubulin by 50%
T1 construct: other: concentration required to reduce assembly of tubulin by 50%
Procedure: (§2) The following assays (1–5) were carried out as described in our paper (Woods, et al, British Journal of Cancer, 71, 705–711 (1995)). In addition to the cell lines described in this paper, other established human cell lines (K562, HUVEC, H460, BE, H529, and HT29) were used in the cytotoxicity/growth inhibition assay. • (1) Inhibition of tubulin assembly. The figure quoted is the concentration required to reduce assembly of tubulin by 50%. Tubulin assembly is monitored by light scatter/absorption at 350 nm.

A2780 = assay: Cytotoxicity/growth inhibition assay (MTT), A2780; format: cell-based
Outline: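 MTT cytotoxicity/growth-inhibition assay in human cell lines including A2780, A2780/ADR, H460 and HUVEC.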

[2] = tested on: P388 murine leukaemia cell line; assay: Cytotoxicity/growth inhibition assay (MTT), P388; format: cell-based
Outline: as §1

[3] = tested on: H460 human lung cell line; assay: Cytotoxicity/growth inhibition assay (MTT), H460; format: cell-based
Procedure: as §2
(§3) (2) Competition for the colchicine binding site on tubulin. The figure quoted represents the % of ^3H-colchicine bound following co-incubation of test compound and ^3H-cochicine with isolated tubulin. Where ester pro-drugs were used the experiments were carried out in the presence and absence of porcine liver esterase. • (3) Cytotoxicity/growth inhibition assay. This was carried out by the MTT assay. • (4) Permeability (shape-change) assay in endothelial cells. This was carried out using a method based on that of Watts et al. (Anticancer Res., 17, 71–75, (1997)). This involved the diffusion of a fluorescently labelled dextran through a barrier of endothelial cells (HUVEC) grown to confluence on a porous membrane. The effect of agents to alter the shape of these cells results in an increase in the permeability of the cells to the dye. The figure represents the increase in permeability over control cultures when drug is added (30 minutes, 1 mM.). • (5) Experiments to study the anti-vascular effects of these agents were carried out as described previously by our group. (Zhao et al, European Journal of Nuclear Medicine, 26, 231–238 (1999)). The anti-vascular effects of the agents were monitored by either positron emission tomography (PET) or by histologogical examination following treatment of mice bearing T50:80 murine breast tumours, or H460 human lung tumours. • (6) Anti-tumour efficacy of agents was determined in xenografts of H460 human lung cancer. Animals (n=5) were trated either with 5 daily injections and tumour size measured with time following treatment. • (7) The pharmacokinetic profile of agents was determined in mice following injection with drug. Blood was taken at various times following treatment and analysed by HPLC with UV detection. The HPLC conditions were isocratic using a 5 micron C18 BDS column (150×4.6) ad eluting with 75% MeOH in water with a detection wavelength of 290 nm. […] (AND(P)H:quinone oxidoreductace, EC 1.6.99.2). DT-diaphorase is an enzyme over-expressed in a number of human tumours. […] This two-electron reducing enzyme can be used to selectively activate prodrugs within cancers which over-express the enzyme.

[4] = tested on: diaphorase null H596 cell line; assay: Cytotoxicity/growth inhibition assay (MTT), H596; format: cell-based; conditions: for H596/H460: ratio of IC50, diaphorase null H596 over H460
Procedure: as §2
(2) Competition for the colchicine binding site on tubulin. The figure quoted represents the % of ^3H-colchicine bound following co-incubation of test compound and ^3H-cochicine with isolated tubulin. Where ester pro-drugs were used the experiments were carried out in the presence and absence of porcine liver esterase. • (3) Cytotoxicity/growth inhibition assay. This was carried out by the MTT assay. • (4) Permeability (shape-change) assay in endothelial cells. This was carried out using a method based on that of Watts et al. (Anticancer Res., 17, 71–75, (1997)). This involved the diffusion of a fluorescently labelled dextran through a barrier of endothelial cells (HUVEC) grown to confluence on a porous membrane. The effect of agents to alter the shape of these cells results in an increase in the permeability of the cells to the dye. The figure represents the increase in permeability over control cultures when drug is added (30 minutes, 1 mM.). • (5) Experiments to study the anti-vascular effects of these agents were carried out as described previously by our group. (Zhao et al, European Journal of Nuclear Medicine, 26, 231–238 (1999)). The anti-vascular effects of the agents were monitored by either positron emission tomography (PET) or by histologogical examination following treatment of mice bearing T50:80 murine breast tumours, or H460 human lung tumours. • (6) Anti-tumour efficacy of agents was determined in xenografts of H460 human lung cancer. Animals (n=5) were trated either with 5 daily injections and tumour size measured with time following treatment. • (7) The pharmacokinetic profile of agents was determined in mice following injection with drug. Blood was taken at various times following treatment and analysed by HPLC with UV detection. The HPLC conditions were isocratic using a 5 micron C18 BDS column (150×4.6) ad eluting with 75% MeOH in water with a detection wavelength of 290 nm. The retention time of 6.6 mins for 97–64H. • (8) Activation of quinone prodrugs by DT-diaphorase. (AND(P)H:quinone oxidoreductace, EC 1.6.99.2). DT-diaphorase is an enzyme over-expressed in a number of human tumours. We have recently shown this enzyme to be highly expressed in the endothelial cells of blood vessels. This two-electron reducing enzyme can be used to selectively activate prodrugs within cancers which over-express the enzyme. We have therefore synthesised quinone pro-drugs (97–96, 98–40, 98–23, 98–33, 98–24) which, upon reduction by the enzyme, produces an agent (a hydroquinone stilbene) which is cytotoxic.
A series of prodrugs capable of being activated by DT-diaphorase, an enzyme over-expressed in a wide range of human cancers and in endothelial cells of the vasculature were synthesised. The rationale for this is that these agents will be activated in situ by the tumours over-expressing the enzyme, thus giving rise to a high local concentration of active drug. This confers selectivity to this agent. These quinone prodrugs (97–96 and 98–23) were tested for their ability to act as substrates for DT-diaphorase. […] This agent may therefore have a role in the treatment of tumours that over-express DT-diaphorase. Similarly, these agents maybe selectively activated in the endothelial cells of the vasculature, thereby conferring a selective anti-vascular effect.

HUVEC = assay: Growth inhibition studies using HUVEC; format: cell-based, human
Procedure: as §2, §3

[5] = tested on: H460 human lung cancer xenografts; assay: Anti-tumour efficacy in xenografts of H460 human lung cancer; format: in vivo, mice; conditions: H460 human lung cancer xenograft
Procedure: (§4) (2) Competition for the colchicine binding site on tubulin. The figure quoted represents the % of ^3H-colchicine bound following co-incubation of test compound and ^3H-cochicine with isolated tubulin. Where ester pro-drugs were used the experiments were carried out in the presence and absence of porcine liver esterase. • (3) Cytotoxicity/growth inhibition assay. This was carried out by the MTT assay. • (4) Permeability (shape-change) assay in endothelial cells. This was carried out using a method based on that of Watts et al. (Anticancer Res., 17, 71–75, (1997)). This involved the diffusion of a fluorescently labelled dextran through a barrier of endothelial cells (HUVEC) grown to confluence on a porous membrane. […] The anti-vascular effects of the agents were monitored by either positron emission tomography (PET) or by histologogical examination following treatment of mice bearing T50:80 murine breast tumours, or H460 human lung tumours. • (6) Anti-tumour efficacy of agents was determined in xenografts of H460 human lung cancer. Animals (n=5) were trated either with 5 daily injections and tumour size measured with time following treatment. • (7) The pharmacokinetic profile of agents was determined in mice following injection with drug. Blood was taken at various times following treatment and analysed by HPLC with UV detection. […]

DT-diaphorase = DT-diaphorase (Homo sapiens, UniProt P15559); assay: Activation of quinone prodrugs by DT-diaphorase; format: biochemical; conditions: comparable to RH1
Sequence of DT-diaphorase (P15559 whole entry, species assumed): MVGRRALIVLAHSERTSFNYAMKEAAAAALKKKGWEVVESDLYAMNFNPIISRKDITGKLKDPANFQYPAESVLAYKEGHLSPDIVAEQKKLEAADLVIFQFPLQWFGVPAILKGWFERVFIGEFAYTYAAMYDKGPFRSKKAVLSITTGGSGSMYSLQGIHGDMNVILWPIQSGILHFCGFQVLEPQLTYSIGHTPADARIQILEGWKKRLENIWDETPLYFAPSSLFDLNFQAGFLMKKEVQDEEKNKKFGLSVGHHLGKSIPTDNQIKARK
Procedure: as §4

[6] = tested on: H460 human lung xenograft; assay: Tumour damage in H460 human lung xenograft grown subcutaneously; format: in vivo; conditions: 0.75×MTD, i.p., twenty four hours following injection
Procedure: The effect of compounds 97–64H and 97–96 (quinone compound) was tested on H460 human lung xenograft grown subcutaneously by injecting equitoxic doses of the compounds (0.75×MTD).

[7] = tested on: colchicine binding site on tubulin; assay: Competition for the colchicine binding site on tubulin
[8] = tested on: cancer cell growth in vitro; assay: Inhibition of cancer cell growth in vitro (cell line not stated); format: cell-based; conditions: read-out: IC50, ability to inhibit cancer cell growth in vitro
K562 cells = assay: In situ ultra violet irradiation of dosed K562 cells, IC50; format: cell-based, human; conditions: K562, in situ, within 2 seconds of exposure; read-out: IC50 after exposure to ultraviolet light
Procedure: Previously, the isomerisation study had been performed ex situ, i.e. in a photochemical reactor. However, it was necessary to illustrate the potential of the process as a real therapy by repeating the isomerization in the presence of the caner cells i.e. in situ. […] Following irradiation, the cells were incubated in the normal way and the IC50 values were determined.
These consisted of i) exposing K562 cells only (i.e. cells which were not dosed with any potential drug candidate) to ultra violet light, ii) preventing K562 cells dosed with drug candidate from being exposed to ultra violet light, and iii) preventing K562 cells only (i.e. cells which were not dosed with any potential drug candidate) from being exposed to ultra violet light. […]

[9] = tested on: cancer cell growth in vitro; conditions: background; cited from earlier work
K562 = K562 cell cycle analysis; format: cell-based, human
[10] = background; cited from earlier work
[11] = Homo sapiens, A2780, read-out: IC50 (nM) A2780

COc1ccc(/C=C(/C)c2cc(OC)c(OC)c(OC)c2)cc1O [Compound 19, Z-(3′-Hydroxy-4′-methoxyphenyl)-2-(3″,4″,5″-trimethoxyphenyl)propene]
IC50 [1]: 40 nM | IC50 (tubulin): 1.8 µM | melting point: 156 to 158 °C

COc1cc(/C=C/C2=CC(=O)C(C)=CC2=O)cc(OC)c1OC [Compound 98-33]
IC50 (A2780; read-out: IC50 (nM) A2780): 950 nM | IC50 [2]: < 780 nM | IC50 [3]: 4110 nM | IC50 [4]: 1490 nM | H596/H460 [4]: 0.36

COC(=O)CCOc1cc([N+](=O)[O-])c(CCc2cc(/C=C\c3cc(OC)c(OC)c(OC)c3)ccc2OC)cc1OC
melting point: 132 to 134 °C

COC1=CC(=O)C(CCc2cc(OC)c(OC)c(OC)c2)=CC1=O [Compound 98-24]
IC50 (A2780; [11]): 1630 nM | IC50 ([2]; Mus musculus, P388): 17000 nM | IC50 ([3]; Homo sapiens, NCI-H460): 3080 nM | IC50 ([4]; Homo sapiens, NCI-H596): 1950 nM | H596/H460 [4]: 0.63

COC1=CC(=O)C(/C=C\c2cc(OC)c(OC)c(OC)c2)=CC1=O [Compound 97-96, 2-Methoxy-5-[(Z)-2-(3′,4′,5′-trimethoxyphenyl)-vinyl]-[1,4]benzoquinone]
IC50 (A2780; Homo sapiens, A2780, read-out: A2780 IC50): 190 nM | IC50 (A2780; [11]): 190 nM | IC50 ([2]; Mus musculus, P388): 570 nM | IC50 ([2]; Mus musculus, P388, MTT): 570 nM | IC50 ([3]; Homo sapiens, NCI-H460): 38 nM | IC50 ([4]; Homo sapiens, NCI-H596): 620 nM | H596/H460 [4]: 16 | IC50 (HUVEC): 220 nM | IC50 (HUVEC; Homo sapiens, HUVEC): 230 nM | IC50 (tubulin): < 1.25 µM | anti-tumour activity in vivo [5]: active | ability to act as substrate for DT-diaphorase (DT-diaphorase): good substrates for the enzyme | tumour damage [6]: extensive damage to the tumours

COc1ccc(C=Cc2cc(OC)c(OC)c(OC)c2)cc1OC(=O)c1ccncc1 [Compound 97-07]
IC50 (A2780; read-out: A2780 IC50): 1.47 nM | IC50 ([2]; MTT): 2.3 nM | IC50 ([3]; Homo sapiens, NCI-H460): 2780 nM | IC50 (tubulin): 10 µM | Colchicine % Inhibition [7]: 6.6% and 12.3%

COc1ccc(/C=C\c2cc(OC)c(OC)c(OC)c2)cc1Oc1c(F)c(F)nc(F)c1F [Compound 97-13H]
IC50 (A2780; read-out: A2780 IC50): 17.9 nM | IC50 ([2]; MTT): 32.6 nM | IC50 [3]: 32 to 35 nM | IC50 (HUVEC): 45 nM | IC50 (tubulin): > 100 µM | Colchicine % Inhibition [7]: 84.2%

c1ccc2c(c1)ccc1ccccc12 [phenanthrene]
IC50 [8]: 700 nM

COc1ccc(/C=C\c2cc(C)c(C)c(C)c2)cc1O [Compound 28, (Z)-1-(3′,4′,5′-trimethylphenyl)-2-(3″-hydroxy-4″-methoxyphenyl)ethene]
IC50 [1]: 21 nM | IC50 (tubulin): 1.5 µM | melting point: 60 to 61 °C

COc1ccc(/C=C/c2cc(OC)c(OC)c(OC)c2)cc1O [trans-CA-4, trans-combretastatin A-4, reference compound]
IC50 (K562 cells): 2 nM | inhibits cell growth [9]: μM range

COc1cc(/C=C\C2=CC(=O)C(C)=CC2=O)cc(OC)c1OC [Compound 98-23]
IC50 (A2780; read-out: A2780 IC50): 2150 nM | IC50 (A2780; read-out: IC50 (nM) A2780): 2150 nM | IC50 [2]: 2180 nM | IC50 ([2]; MTT): 2180 nM | IC50 [3]: 4370 nM | IC50 [4]: 2280 nM | H596/H460 [4]: 0.52 | ability to act as substrate for DT-diaphorase (DT-diaphorase): good substrates for the enzyme

COc1cc(/C=C\c2ccc(C)c(F)c2)cc(OC)c1OC [Compound 98-35H]
IC50 (A2780; read-out: A2780 IC50): 1.44 nM | IC50 ([2]; MTT): 3.28 nM | IC50 (HUVEC): 16 nM | IC50 (tubulin): 6.25 µM | Colchicine % Inhibition [7]: 5%

cis-combretastatin A-4 [Compound 1, reference compound]
% of cells in G0–G1 (K562): 3% | % of cells in G2-M (K562): 92% | % of cells in S phase (K562): 6% | % of cells with DNA content <2 n (K562): 7% | water solubility [10]: poor water solubility
